Measured values from PMC3428523, “Phase I study of the Aurora B kinase inhibitor barasertib (AZD1152) to assess the pharmacokinetics, metabolism and excretion in patients with acute myeloid leukemia” (Cancer Chemotherapy and Pharmacology, 2012).
Where two headings read alike, the source gives them in different places. Marks after values point to notes of the source that are not given here. Blank lines part the entries; values can stand above or below the compound they belong to.

How the values were obtained:
[1] = Urine pharmacokinetics of barasertib and barasertib-hQPA (LC-MS/MS) in patients with AML; format: in vivo, human
Method: (§1) This was an open-label, single-arm, single-center, Phase I study. Patients received barasertib 1,200 mg as a 7-day continuous intravenous infusion every 28 days. On Day 2 of Cycle 1 only, patients also received [^14C]-barasertib (250 μCi), administered as a 2-hour infusion. Based on preclinical studies in rat and dog, it was expected that an adequate recovery of total radioactivity, and thus comprehensive metabolite profiling, would be achieved following the administration of the specified [^14C]-barasertib regimen (data on file). On the completion of the [^14C]-barasertib infusion, administration of non-radiolabeled barasertib resumed for the remainder of the 7-day infusion period. Following Cycle 1, each patient could receive subsequent treatment cycles until disease progression or any other discontinuation criteria were met. For Cycle 1, patients remained as in-patients for up to 9 days following the start of the 7-day barasertib infusion (7 days of dosing plus 2 additional days for observation). For all subsequent cycles, patients were hospitalized for the infusion period only.
(§2) Samples of blood, urine and feces were collected prior to study treatment and at various time points during Cycle 1. Blood samples were collected approximately 30 min prior to start of infusion (SOI) on Day 1 (barasertib) and Day 2 ([^14C]-barasertib), and then every 24 h until Day 10 (216 h) and on Days 14 and 18 (312 and 408 h, respectively). In addition, samples were collected on Day 2: 1 h following the start of the [^14C]-barasertib infusion ([^14C]-SOI), 5 min prior to the end of [^14C]-barasertib infusion ([^14C]-EOI), and at 15 min, 1, 2, 4 and 8 h following [^14C]-EOI; and on Day 8: 5 min prior to the end of the barasertib infusion (EOI), and at 15 min, 1, 2, 4, 6 and 10 h following EOI. A urine sample was collected within the 24-hour period prior to barasertib-SOI; feces samples within this 24-hour period were also collected. A urine sample was collected within the 24-hour period following barasertib-SOI. Further, urine and feces samples were collected within 24-hour periods following [^14C]-SOI: 0–24, 24–48, 48–72, 72–96, 96–120, 120–144, 144–168 and 168–192 h.
Barasertib and barasertib-hQPA concentrations in plasma and urine were measured using liquid chromatography tandem mass spectrometry following solid-phase extraction (plasma) or dilution (urine). Plasma measurements were determined by an independent bioanalytical facility (PRA International—Early Development Services, Assen, The Netherlands). The lower limit of quantification (LLOQ) was 0.25 ng/mL for plasma samples and 1.00 μg/mL for urine samples. Radioactivity in weighed aliquots of plasma, urine, feces, whole blood and dose material was determined by liquid scintillation counting (LSC). Radioactivity concentrations in plasma and whole blood, and percentage dose excreted in urine and feces samples were calculated using LabLogic Debra 5TM (version 5.4.10.51). For metabolite profiling, plasma samples that were collected 5 min prior to [^14C]-EOI for each patient were prepared using 5 % formic acid in acetonitrile; extraction efficiencies were all >91 %. Extracts were concentrated to dryness and reconstituted in water/acetonitrile (95:5 v/v). […] Metabolite profiling was determined using high-performance liquid chromatography–radiometric (HPLC-RAD) methodology, with metabolites identified by HPLC coupled with mass spectrometry (HPLC-MSn).

[2] = Plasma pharmacokinetics of barasertib and barasertib-hQPA (LC-MS/MS), 7-day continuous infusion in patients with AML; format: in vivo, human; conditions: for Time by which maximal plasma concentration was achieved: from start of infusion, first scheduled sample
Method: as §1, §2
Barasertib and barasertib-hQPA concentrations in plasma and urine were measured using liquid chromatography tandem mass spectrometry following solid-phase extraction (plasma) or dilution (urine). Plasma measurements were determined by an independent bioanalytical facility (PRA International—Early Development Services, Assen, The Netherlands). The lower limit of quantification (LLOQ) was 0.25 ng/mL for plasma samples and 1.00 μg/mL for urine samples. Radioactivity in weighed aliquots of plasma, urine, feces, whole blood and dose material was determined by liquid scintillation counting (LSC). Radioactivity concentrations in plasma and whole blood, and percentage dose excreted in urine and feces samples were calculated using LabLogic Debra 5TM (version 5.4.10.51). For metabolite profiling, plasma samples that were collected 5 min prior to [^14C]-EOI for each patient were prepared using 5 % formic acid in acetonitrile; extraction efficiencies were all >91 %. Extracts were concentrated to dryness and reconstituted in water/acetonitrile (95:5 v/v). Pooled urine samples were freeze-dried and then reconstituted in methanol (duplicate extracts); extraction efficiencies were all >94 %. The two extracts were combined, concentrated to dryness and reconstituted in water/acetonitrile (95:5 v/v). Pooled feces samples were extracted with hexane followed by 3 × 5 % formic acid in acetonitrile; extraction efficiencies ranged from 86 to 98 %. The first two 5 % formic acid/acetonitrile extracts were combined, concentrated to a small volume and reconstituted in water/acetonitrile (95:5 v/v). Metabolite profiling was determined using high-performance liquid chromatography–radiometric (HPLC-RAD) methodology, with metabolites identified by HPLC coupled with mass spectrometry (HPLC-MSn).

[3] = Metabolite profiling of plasma, urine and feces by HPLC-RAD / HPLC-MSn; format: in vivo, human
Method: Samples of blood, urine and feces were collected prior to study treatment and at various time points during Cycle 1. […] A urine sample was collected within the 24-hour period prior to barasertib-SOI; feces samples within this 24-hour period were also collected. A urine sample was collected within the 24-hour period following barasertib-SOI.
Barasertib and barasertib-hQPA concentrations in plasma and urine were measured using liquid chromatography tandem mass spectrometry following solid-phase extraction (plasma) or dilution (urine). Plasma measurements were determined by an independent bioanalytical facility (PRA International—Early Development Services, Assen, The Netherlands). […] Radioactivity in weighed aliquots of plasma, urine, feces, whole blood and dose material was determined by liquid scintillation counting (LSC). Radioactivity concentrations in plasma and whole blood, and percentage dose excreted in urine and feces samples were calculated using LabLogic Debra 5TM (version 5.4.10.51). […] Extracts were concentrated to dryness and reconstituted in water/acetonitrile (95:5 v/v). […] The two extracts were combined, concentrated to dryness and reconstituted in water/acetonitrile (95:5 v/v). […] The first two 5 % formic acid/acetonitrile extracts were combined, concentrated to a small volume and reconstituted in water/acetonitrile (95:5 v/v). Metabolite profiling was determined using high-performance liquid chromatography–radiometric (HPLC-RAD) methodology, with metabolites identified by HPLC coupled with mass spectrometry (HPLC-MSn).

patients with AML [4] = assay: Safety: adverse events graded by CTCAE version 3.0; format: in vivo, human
Method: (§3) Efficacy was assessed according to the International Working Group for AML trials criteria. Adverse events (AEs) were graded according to the National Cancer Institute Common Terminology Criteria for Adverse Events (CTCAE), version 3.0 [19].

patients with AML [5] = assay: Efficacy: response by International Working Group AML criteria; format: in vivo, human
Method: The primary objective was to assess the PK, metabolism and excretion profiles of barasertib and barasertib-hQPA following a single 7-day intravenous infusion, including a short infusion of [^14C]-barasertib, to patients with AML. Secondary objectives were to assess the safety and tolerability of barasertib and to evaluate preliminary efficacy by measurement of individual patient response (based on the International Working Group AML clinical response criteria).
as §3

patients with AML [6] = tested on: patients with AML; design: method as in PMID 21976672, PMID 21565405; conditions: Phase I studies, Japanese and Western patients with AML; cited from earlier work
AML patients = conditions: Phase I/II dose-escalation study; cited from earlier work
[7] = urine, n=5, arithmetic mean (standard deviation)
[8] = human, plasma, iv, 1200 mg, plasma, n=4, barasertib 1,200 mg 7-day continuous i.v. infusion, geometric mean (coefficient of variation), read-out: AUC(0–t)
[9] = plasma, n=4, barasertib 1,200 mg 7-day continuous i.v. infusion, geometric mean (coefficient of variation)
[10] = excreta (urine and feces), % of administered dose
[11] = plasma collected 5 min prior to [14C]-EOI, % of chromatogram radioactivity
[12] = Grade 3, barasertib 1,200 mg, n = 5
[13] = all grades, any cause, barasertib 1,200 mg, n = 5
[14] = all grades, barasertib 1,200 mg, n = 5

Geometric mean urine concentration ([1]; during the infusion period): 4 to 5 µg/mL
CL renal ([1]; human, urine and plasma, intravenous, 1200 mg, urine, n=5, arithmetic mean (standard deviation), read-out: CLR, renal clearance of drug from plasma (converted)): 47.5 mL/min
fe, fraction of drug excreted into urine [1, 7]: 8.1 (3.9) %
Geometric mean plasma concentration of barasertib-hQPA relative to barasertib ([2]; during the infusion period): approximately threefold
Time by which maximal plasma concentration was achieved [2]: ≤ 24 h
Difference between volumes of distribution (apparent) at steady state versus terminal phase ([2]; human, in vivo): fourfold
clearance ([2]; human, intravenous, 1200 mg, plasma, n=4, arithmetic mean (standard deviation), read-out: CL, total clearance (converted)): 523 mL/min
half-life ([2]; human, intravenous, 1200 mg, plasma, n=4, arithmetic mean (standard deviation), read-out: t½, terminal half-life (converted)): 66.3 h
k el ([2]; human, intravenous, 1200 mg, plasma, n=4, arithmetic mean (standard deviation), read-out: λZ, slowest disposition rate constant (converted)): 5.56e-06 s⁻¹
AUC ([2]; human, iv, 1200 mg, plasma, n=4, barasertib 1,200 mg 7-day continuous i.v. infusion, geometric mean (coefficient of variation)): 40400 ng·h/mL
Vd ([2]; human, plasma, intravenous, 1200 mg, plasma, n=4, arithmetic mean (standard deviation), read-out: VSS, volume of distribution (apparent) at steady state): 669 L
Vd ([2]; human, plasma, intravenous, 1200 mg, plasma, n=4, arithmetic mean (standard deviation), read-out: VZ, volume of distribution (apparent) during terminal (λZ) phase): 2800 L
concentration at 408 h ([2]; human, plasma, intravenous, 1200 mg, 408 h (Day 18), read-out: Plasma concentration at final sampling point): ~4 ng/mL
AUC(0-t) ([2]; human, plasma, iv, 1200 mg, plasma, n=4, barasertib 1,200 mg 7-day continuous i.v. infusion, geometric mean (coefficient of variation), read-out: AUC(0–192 h)): 38200 ng·h/mL
AUC(0-t) [2, 8]: 40100 ng·h/mL
CSS, steady-state drug concentration [2, 9]: 226.8 (0.4) ng/mL
Plasma concentration as fraction of the plasma steady-state concentration ([2]; within 2 h post-EOI, rapid initial phase): one-third
Retrieved radioactivity (%), range [3, 10]: 13.15–33.70%
Retrieved radioactivity (%), range ([3]; excreta (urine and feces), % of administered dose, listed as barasertib-hQPA): 13.2–33.7%
Retrieved radioactivity (%), range [3, 11]: 48.27–56.61%
Compound: CCN(CCO)CCCOc1ccc2c(Nc3cc(CC(=O)Nc4cccc(F)c4)[nH]n3)ncnc2c1 [Barasertib-hQPA, barasertib-hydroxyquinazoline-pyrazol-aniline]
Ae, cumulative amount of unchanged drug excreted [1, 7]: 96.9 (47.2) mg

Compound: Barasertib-hQPA N-oxide
Retrieved radioactivity (%), range [3, 10]: 0.21–2.96%

Compound: CCN(CCO)CCCOc1ccc2c(Nc3cc(CC(=O)O)[nH]n3)ncnc2c1 [Barasertib-hQPA desfluoroaniline]
Retrieved radioactivity (%), range [3, 10]: 1.60–5.48%
Retrieved radioactivity (%), range [3, 11]: 2.05^e %

Compound: CCN(CCCOc1ccc2c(Nc3cc(CC(=O)Nc4cccc(F)c4)n[nH]3)ncnc2c1)CCOP(=O)(O)O [Barasertib]
Febrile neutropenia, number of patients (patients with AML [4]; [12]): 2
Hypocalcemia, number of patients (patients with AML [4]; [12]): 1
Hypomagnesemia, number of patients (patients with AML [4]; [12]): 1
Stomatitis, number of patients (patients with AML [4]; [12]): 2
Febrile neutropenia, number of patients (patients with AML [4]; Grade 4, barasertib 1,200 mg, n = 5): 1
Nausea, number of patients (patients with AML [4]; [13]): 4
Stomatitis, number of patients (patients with AML [4]; [13]): 4
Alopecia, number of patients (patients with AML [4]; [14]): 3
Constipation, number of patients (patients with AML [4]; [14]): 2
Decreased appetite, number of patients (patients with AML [4]; [14]): 2
Diarrhea, number of patients (patients with AML [4]; [14]): 2
Fatigue, number of patients (patients with AML [4]; [14]): 2
Febrile neutropenia, number of patients (patients with AML [4]; [14]): 3
Headache, number of patients (patients with AML [4]; [14]): 2
Hypocalcemia, number of patients (patients with AML [4]; [14]): 3
Hypomagnesemia, number of patients (patients with AML [4]; [14]): 2
Oral candidiasis, number of patients (patients with AML [4]; [14]): 2
Peripheral edema, number of patients (patients with AML [4]; [14]): 2
Vomiting, number of patients (patients with AML [4]; [14]): 3
Patients who had died due to an AE (patients with AML [4]; at data cutoff, grade 5 multi-organ failure, considered unrelated to study treatment): one
Changes in vital signs or ECG measurements (patients with AML [4]; barasertib 1,200 mg, n = 5): no clinically relevant changes
Patients who experienced grade ≥3 AEs (patients with AML [4]; barasertib 1,200 mg, n = 5): three
Urine concentration ([1]; all time points, LLOQ 1.00 μg/mL urine): below LLOQ
Time after end of infusion at which plasma concentration reached the LLOQ ([2]; LLOQ 0.25 ng/mL plasma): ≤ 6 h
Time by which maximal plasma concentration was achieved [2]: ≤ 24 h
AUC(0-t) [2, 8]: 13800 ng·h/mL
CSS, steady-state drug concentration [2, 9]: 85.6 (0.5) ng/mL
Patients with no response (patients with AML [5]; four patients evaluable for response): three
Patients achieving complete response / complete remission (patients with AML [5]; four patients evaluable for response, barasertib 1,200 mg 7-day infusion every 28 days): One
Duration of complete response (patients with AML [5]; one patient): ~ 6 months
Response rates (patients with AML [6]): 19–25%
Retrieved radioactivity (%), range [3, 11]: 17.26–26.53%
Maximum tolerated dose (MTD) (AML patients): 1,200 mg
